These results are taken from patent publication US8389526B2, “3-heteroarylmethyl-imidazo[1,2-b]pyridazin-6-yl derivatives” (Novartis AG, priority 2009, dated 2013).

Experiment [1] has as its system MET-amplified gastric cancer cell line GTL-16. The experiment can be described thus: GTL-16 proliferation assay (MTS). Format: cell-based. As to conditions: Homo sapiens, GTL-16 cells, 72 h incubation. The protocol:
(§1) C-Met Dependent Cellular Assays
(§2) A number of compounds of the present invention were assayed in a c-Met dependent proliferation and phosphorylation assay as follows.
GTL-16 proliferation assay: the MET-amplified gastric cancer cell line GTL-16 was grown under standard cell culture conditions in DMEM [Dulbecco's Modified Eagle Medium] (high glucose) supplemented with 10% heat-inactivated fetal calf serum and 2 mM L-glutamine. For proliferation assays, cells were seeded at 3000 per well in 96-well-plates. 24 h later, a 10-point dilution series of each compound (3-fold steps, ranging from […]) was prepared in DMSO. Compound were then diluted 1000-fold in growth media in two steps and added to cells in triplicates, resulting in a final volume of […] per well and maximal final compound concentrations of […]. A DMSO-only control was included. Cells were incubated for 72 h and the amount of viable cells was then measured by adding […] of MTS reagent (CellTiter 96® AQueous Non-Radioactive Cell Proliferation Assay, Promega), further incubation for 30′, and reading the optical density at 490 nm.

Experiment [2] deals with T1, c-Met receptor tyrosine kinase, GST-c-Met(969-1390) (Homo sapiens, UniProt P08581).
T1 construct: made in house
The experiment can be described thus: EPK c-Met profiling assay (LanthaScreen TR-FRET kinase assay). As to conditions: 2 μM ATP, 0.3 nM enzyme, 60 minutes at room temperature. The class given is biochemical. The protocol: A number of compounds of the present invention were assayed in an antibody based kinase phosphorylation assay as follows.
Epk c-Met Profiling Assay:
The EPK kinase assay for c-Met receptor tyrosine kinase was developed, using the purified recombinant GST-fusion protein, containing the cytoplasmic domain of the enzyme. GST-c-Met(969-1390) was purified by affinity chromatography.
The kinase assay is based on the LanthaScreen™ technology. LanthaScreen™ is the detection of Time-Resolved Fluorescence Resonance Energy Transfer (TR-FRET) using lanthanide chelates to measure interactions between various binding partners. In a TR-FRET kinase assay, a long-lifetime lanthanide donor species is conjugated to an antibody that specifically binds to a phosphorylated product of a kinase reaction that is labeled with a suitable acceptor fluorophore. This antibody-mediated interaction brings the lanthanide donor and the acceptor into proximity such that resonance energy transfer can take place, resulting in a detectible increase in the FRET signal.
The kinase reactions were performed in 384 well microtiter plates in a total reaction volume of 9.05 μL. The assay plates were prepared with 0.05 μL per well of test compound in the appropriate test concentration, as described under “preparation of compound dilutions”. The reactions were started by combining 4.5 μL of ATP solution with 4.5 μL of enzyme-substrate mix (consisting of kinase and substrate). The final concentrations in the kinase reactions were 35 mM Tris/HCl, 1 mM DTT, 0.025% Tween20, 10 μM sodium orthovanadate, 0.25% BSA, 0.6% DMSO, 10 mM MgCl2, 3 mM MnCl2, 2 μM ATP, 50 nM Fluorescein-PolyEAY, and 0.3 nM enzyme.
The reactions were incubated for 60 minutes at room temperature and stopped by adding 4.5 μL of stop buffer (50 mM EDTA, 0.04% NP40, 20 mM Tris/HCl).
Subsequently 4.5 μL of detection mix (50 mM Tris/HCl, 2 mM DTT, 0.05% Tween20, 20 μM sodium orthovanadate, 1% BSA, 1.72 μg/mL Tb-PY20 antibody) were added to the stopped reactions. After 30 minutes incubation at room temperature, the plates were measured in a BMG Pherastar fluorescence reader. The effect of compound on the enzymatic activity was in all assays obtained from the linear progress curves and determined from one reading (end point measurement).
Preparation of Compound Dilutions
Test compounds were dissolved in DMSO (10 mM) and transferred into 1.4 mL flat bottom or V-shaped Matrix tubes carrying a unique 2D matrix. The stock solutions were stored at −20° C. if not used immediately. For the test procedure the vials were defrosted and identified by a scanner whereby a working sheet was generated that guided the subsequent working steps.
Compound dilutions were made in 96 well plates. This format enabled the assay of maximally 40 individual test compounds at 8 concentrations (single points) including 4 reference compounds. The dilution protocol included the production of “pre-dilution plates”, “master plates” and “assay plates”.
Pre-dilution plates: 96 polypropylene well plates were used as pre-dilution plates. A total of 4 pre-dilution plates were prepared including 10 test compounds each on the plate positions A1-A10, one standard compound at A11 and one DMSO control at A12. All dilution steps were done on a HamiltonSTAR robot.
Master plates: 100 μL of individual compound dilutions including standard compound and controls of the 4 “pre-dilution plates” were transferred into a 384 “master plate” including the following concentrations 1′820, 564, 182, 54.6, 18.2, 5.46, 1.82 and 0.546 μM, respectively in 90% of DMSO.
Assay plates: Identical “assay plates” were then prepared by pipetting 50 nL each of compound dilutions of the “master plates” into 384-well “assay plates” by means of a HummingBird 384-channel dispenser. These plates were used directly for the assay which was performed in a total volume of 9.05 μL. […]

A further experiment deals with T2, c-Met (Homo sapiens, UniProt P08581).
T2 construct: adapted to measure the phosphorylation of endogenous cellular proteins in cell lysates; endogenous in cells; host or cells: GTL-16
Briefly: GTL-16 c-Met autophosphorylation measured by AlphaScreen detection. Format: cell-based. As to conditions: GTL-16 cells, 1 h incubation, AlphaScreen p-c-Met; read-out: GTL-16 IC50 c-Met phosphorylation. As to the method: as §1, §2
GTL-16 c-Met autophosphorylation measured by AlphaScreen® detection: the human MET-amplified gastric cancer cells GTL-16 were plated in 384-well plates at a density of 10′000 cells in 20 ul complete growth medium (DMEM high glucose supplemented with 10% (v/v) heat inactivated fetal calf serum and of 1 mM sodium pyruvate) and were incubated at […]/5% CO2/95% humidity for 20 h. The cells were washed and the 30 ul assay buffer (DMEM high glucose, 1 mM sodium pyruvate, 0.1% bovine serum albumine) was added. Compounds were diluted in 384-well compound plates to obtain 8-point serial dilutions for 40 test compounds in 90% DMSO, as well as a reference compound plus 16 high- and 16 low (inhibited) controls. These compound plates were prediluted 1:200 in assay buffer into a compound predilution plate and 10 ul of prediluted compound solution were transferred to the cell plate using a 384-well pipettor, resulting in a final DMSO concentration of 0.11%. Cells were incubated for 1 h at […]/5% CO2/95% humidity. The supernatant was removed, the cells were lysed in 25 ul of RIPA [radio immuno precipitation assay] lysis buffer supplemented with 2 mM sodium vanadate and a protease inhibitor cocktail, and cell plates were stored at −80° C.
For detection of p-c-Met, an AlphaScreen®-based assay was used. AlphaScreen® (Amplified Luminescent Proximity Homogeneous Assay, ALPHA, Perkin Elmer, U.S.A) is a non-radioactive bead-based proximity assay technology to study biomolecular interactions in a homogenous microtiter plate format. This technique has been adapted to measure the phosphorylation of endogenous cellular proteins in cell lysates by the use of specific antibody pairs against the total protein and a phospho-specific epitope. 5 ul of cell lysate was transferred to 384-well low volume Proxiplates for detection using a 384-well pipettor. First, 5 ul of a premix of an anti-c-Met antibody (0.25 ug/ml f.c.), a biotinylated PY20 antibody (phosphotyrosine antibody, 0.05 ug/ml f.c.) and AlphaScreen® Protein A-coupled acceptor beads (10 ug/ml f.c.) in RIPA buffer supplemented with 0.25% (v/w) TOP BLOCK, 2 mM sodium vanadate, and a protease inhibitor cocktail and was added, the plate was sealed, and incubated on a plate shaker for 2 hours at room temperature. Second, 2 ul of dilution buffer containing AlphaScreen® Streptavidin-coated donor beads (10 ug/ml f.c.) in RIPA buffer was added, and the plate was incubated on plate shaker as above for a further 2 hours. The plate was read on an AlphaScreen® compatible plate reader, using standard AlphaScreen® settings.

T1 sequence (P08581 969-1390): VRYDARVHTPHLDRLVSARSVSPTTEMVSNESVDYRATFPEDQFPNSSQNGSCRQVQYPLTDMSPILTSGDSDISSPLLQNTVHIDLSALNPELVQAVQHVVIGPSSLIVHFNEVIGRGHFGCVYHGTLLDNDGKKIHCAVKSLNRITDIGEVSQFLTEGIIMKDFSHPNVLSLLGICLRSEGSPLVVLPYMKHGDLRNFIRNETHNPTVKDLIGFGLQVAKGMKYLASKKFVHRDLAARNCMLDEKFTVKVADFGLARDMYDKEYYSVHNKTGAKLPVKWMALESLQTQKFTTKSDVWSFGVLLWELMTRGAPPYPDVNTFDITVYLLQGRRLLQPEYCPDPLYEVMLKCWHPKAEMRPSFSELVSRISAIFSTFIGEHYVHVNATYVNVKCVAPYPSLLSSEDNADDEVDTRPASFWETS
T2 sequence (P08581 25-1390): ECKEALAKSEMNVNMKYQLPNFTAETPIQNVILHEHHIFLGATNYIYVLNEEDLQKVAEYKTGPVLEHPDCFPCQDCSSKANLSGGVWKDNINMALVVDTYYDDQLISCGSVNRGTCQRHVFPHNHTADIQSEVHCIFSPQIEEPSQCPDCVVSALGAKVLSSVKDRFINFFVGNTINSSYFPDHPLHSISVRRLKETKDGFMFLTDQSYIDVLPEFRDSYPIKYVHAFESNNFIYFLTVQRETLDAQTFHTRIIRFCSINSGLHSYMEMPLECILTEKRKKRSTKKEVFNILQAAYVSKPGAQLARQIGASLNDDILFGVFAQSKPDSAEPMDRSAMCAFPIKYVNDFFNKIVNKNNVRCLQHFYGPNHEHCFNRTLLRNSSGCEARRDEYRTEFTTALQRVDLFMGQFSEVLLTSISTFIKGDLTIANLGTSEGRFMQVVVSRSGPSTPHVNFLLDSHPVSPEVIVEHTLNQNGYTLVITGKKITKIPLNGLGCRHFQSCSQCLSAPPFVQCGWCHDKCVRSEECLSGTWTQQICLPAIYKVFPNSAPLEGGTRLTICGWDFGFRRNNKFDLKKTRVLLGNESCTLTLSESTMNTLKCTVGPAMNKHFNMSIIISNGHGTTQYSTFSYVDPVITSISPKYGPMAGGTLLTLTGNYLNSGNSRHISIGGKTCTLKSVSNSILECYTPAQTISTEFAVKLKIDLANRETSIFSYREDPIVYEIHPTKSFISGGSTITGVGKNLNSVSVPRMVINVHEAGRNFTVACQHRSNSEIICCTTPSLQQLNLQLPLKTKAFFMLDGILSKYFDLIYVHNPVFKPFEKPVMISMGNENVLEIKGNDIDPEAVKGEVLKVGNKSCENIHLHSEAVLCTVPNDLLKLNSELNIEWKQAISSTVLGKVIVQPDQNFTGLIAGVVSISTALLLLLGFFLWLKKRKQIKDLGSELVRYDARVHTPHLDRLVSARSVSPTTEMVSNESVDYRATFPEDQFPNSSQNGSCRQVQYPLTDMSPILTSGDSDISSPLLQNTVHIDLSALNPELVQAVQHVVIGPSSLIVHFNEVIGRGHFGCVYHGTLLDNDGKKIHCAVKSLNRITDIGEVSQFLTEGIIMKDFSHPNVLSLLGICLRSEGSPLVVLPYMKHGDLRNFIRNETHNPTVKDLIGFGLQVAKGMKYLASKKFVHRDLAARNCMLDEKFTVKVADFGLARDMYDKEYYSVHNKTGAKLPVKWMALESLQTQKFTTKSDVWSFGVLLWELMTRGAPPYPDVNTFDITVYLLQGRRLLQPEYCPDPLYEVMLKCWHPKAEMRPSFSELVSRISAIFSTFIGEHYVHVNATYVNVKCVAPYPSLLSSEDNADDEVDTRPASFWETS

A word on the IC50: it is the midpoint of a concentration-inhibition curve. Take `CC(c1c(F)cc2ncccc2c1F)c1cnc2ccc(N3CCN(C)C(=O)C3)nn12` (racemic) [Example 1, (rac)-4-{3-[1-(5,7-Difluoro-quinolin-6-yl)-ethyl]-imidazo[1,2-b]pyridazin-6-yl}-1-methyl-piperazin-2-one]: the IC50 in experiment [1] is 9.1 nM; in experiment [2], 8.6 nM; on c-Met it was less than 3 nM.

Take `CC(c1c(F)cc2ncccc2c1F)c1cnc2ccc(N3CCNC(=O)C3)nn12` (racemic) [Example 3, (rac)-4-{3-[1-(5,7-Difluoro-quinolin-6-yl)-ethyl]-imidazo[1,2-b]pyridazin-6-yl}-piperazin-2-one]: the IC50 in experiment [1] was 6 nM; in experiment [2] it was 5.2 nM; on c-Met, less than 3 nM.

In the case of `CC(c1c(F)cc2ncccc2c1F)c1cnc2ccc(N3CCNCC3)nn12` (racemic) [Example 6, (rac)-5,7-Difluoro-6-[1-(6-piperazin-1-yl-imidazo[1,2-b]pyridazin-3-yl)-ethyl]-quinoline], the half-maximal inhibitory concentration (IC50) was found to be 11.6 nM in experiment [1], 4.5 nM in experiment [2] and 3 nM on c-Met.

On to `CC(c1c(F)cc2ncccc2c1F)c1cnc2ccc(N3CCN(C)CC3)nn12` (racemic) [Example 8, (rac)-5,7-Difluoro-6-{1-[6-(4-methyl-piperazin-1-yl)-imidazo[1,2-b]pyridazin-3-yl]-ethyl}-quinoline], for which the IC50 is 15.5 nM in experiment [1], 5.7 nM in experiment [2] and less than 3 nM at c-Met.

Take `CC(=O)N1CCN(c2ccc3ncc(C(C)c4c(F)cc5ncccc5c4F)n3n2)CC1` (racemic) [Example 10, (rac)-1-(4-{3-[1-(5,7-Difluoro-quinolin-6-yl)-ethyl]-imidazo[1,2-b]pyridazin-6-yl}-piperazin-1-yl)ethanone]: the IC50 was 14.6 nM in experiment [1], less than 3 nM in experiment [2] and less than 3 nM on c-Met.

`CC(c1c(F)cc2ncccc2c1F)c1cnc2ccc(N3CCN(C=O)CC3)nn12` (racemic) [Example 12, (rac)-4-{3-[1-(5,7-Difluoro-quinolin-6-yl)-ethyl]-imidazo[1,2-b]pyridazin-6-yl}-piperazine-1-carbaldehyde] showed a concentration for half-maximal inhibition (IC50) in experiment [2] of 8 nM.

Molecule `COC(=O)N1CCN(c2ccc3ncc(C(C)c4c(F)cc5ncccc5c4F)n3n2)CC1` (racemic) [Example 14, (rac)-4-{3-[1-(5,7-Difluoro-quinolin-6-yl)-ethyl]-imidazo[1,2-b]pyridazin-6-yl}-piperazine-1-carboxylic acid methyl ester] gave an IC50 in experiment [2] of 7.9 nM.

Take `CC(c1c(F)cc2ncccc2c1F)c1cnc2ccc(N3CCNC(=O)C3C)nn12` (racemic) [Example 18, (rac)-4-{3-[1-(5,7-Difluoro-quinolin-6-yl)-ethyl]-imidazo[1,2-b]pyridazin-6-yl}-3-methyl-piperazin-2-one]: the IC50 in experiment [1] amounted to 9.2 nM; in experiment [2], 8.3 nM.

The molecule `C[C@H](c1c(F)cc2ncccc2c1F)c1cnc2ccc(N3CCNC(=O)C3)nn12` (single isomer, unassigned) [Example 4] yielded an IC50 in experiment [2] of 680 nM.

In experiment [2], `CN1CCN(c2ccc3ncc(Cc4cc5cccnc5cc4F)n3n2)CC1=O` [Example 37, 4-[3-(7-Fluoro-quinolin-6-ylmethyl)-imidazo[1,2-b]pyridazin-6-yl]-1-methyl-piperazin-2-one] returned an IC50 of 58 nM.

In experiment [2], `O=C1CN(c2ccc3ncc(Cc4cc5cccnc5cc4F)n3n2)CCN1` [Example 38, 4-[3-(7-Fluoro-quinolin-6-ylmethyl)-imidazo[1,2-b]pyridazin-6-yl]-piperazin-2-one] had an IC50 of 31 nM.

Turning to `CC(=O)N1CCN(c2ccc3ncc(Cc4cc5cccnc5cc4F)n3n2)CC1` [Example 39, 1-{4-[3-(7-Fluoro-quinolin-6-ylmethyl)-imidazo[1,2-b]pyridazin-6-yl]-piperazin-1-yl}-ethanone], in experiment [2], the IC50 came out at 84 nM.

On to `CN1CCN(c2ccc3ncc(Cc4ccc5ncccc5c4F)n3n2)CC1=O` [Example 43, 4-[3-(5-Fluoro-quinolin-6-ylmethyl)-imidazo[1,2-b]pyridazin-6-yl]-1-methyl-piperazin-2-one], for which 84 nM corresponded to half-maximal inhibition in experiment [2] (IC50).

With `CC(=O)N1CCN(c2ccc3ncc(Cc4ccc5ncccc5c4F)n3n2)CC1` [Example 45, 1-{4-[3-(5-Fluoro-quinolin-6-ylmethyl)-imidazo[1,2-b]pyridazin-6-yl]-piperazin-1-yl}-ethanone], it took 170 nM to reach half-maximal inhibition in experiment [2] (IC50).

In experiment [2], `CC(=O)N1CCN(c2ccc3ncc(Cc4c(F)cc5c(cnn5C)c4F)n3n2)CC1` [Example 55, 1-(4-(3-((4,6-difluoro-1-methyl-1H-indazol-5-yl)methyl)imidazo[1,2-b]pyridazin-6-yl)piperazin-1-yl)ethanone] gave an IC50 of 29 nM.
